Columns and labels:
Assay in all cases: normalised response (% of control), CellTiter-Glo; higher = more viable cells (100 = DMSO, 0 = benzethonium chloride kill control)
Details in all cases: incubation time: 72 h
MDA-MB-468 = system: MDA-MB-468
Outline: (§1)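 Compound was dispensed into 384-well plates at 5 concentrations in 10-fold steps spanning a 10,000-fold range specific to that compound. Breast cancer cell lines were added as 20 µl suspension and left for 72 h before CellTox Green fluorescence (485/520 nm) and then CellTiter-Glo luminescence, read after 10 min at room temperature. Each reported value is the normalised signal at one concentration, with 0.1 % DMSO set at 100 and a positive kill control at 0 on each plate.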

BT-549 = system: BT-549
Outline: as §1

MFM-223 = system: MFM-223
Outline: as §1

HCC1937 = system: HCC1937
Outline: as §1

MDA-MB-231 = system: MDA-MB-231
Outline: as §1

HCC1143 = system: HCC1143
Outline: as §1

Hs578T = system: Hs578T
Outline: as §1

MDA-MB-453 = system: MDA-MB-453
Outline: as §1

CAL-148 = system: CAL-148
Outline: as §1

MCF-10A = system: MCF-10A
Outline: as §1

HCC1599 = system: HCC1599
Outline: as §1

DU-4475 = system: DU-4475
Outline: as §1

HDQ-P1 = system: HDQ-P1
Outline: as §1

CAL-120 = system: CAL-120
Outline: as §1

BT-474 = system: BT-474
Outline: as §1

CAL-51 = system: CAL-51
Outline: as §1

SK-BR-3 = system: SK-BR-3
Outline: as §1

MDA-MB-436 = system: MDA-MB-436
Outline: as §1

CAL-85-1 = system: CAL-85-1
Outline: as §1

| SMILES | normalised response (MDA-MB-468) | normalised response (BT-549) | normalised response (MFM-223) | normalised response (HCC1937) | normalised response (MDA-MB-231) | normalised response (HCC1143) | normalised response (Hs578T) | normalised response (MDA-MB-453) | normalised response (CAL-148) | normalised response (MCF-10A) | normalised response (HCC1599) | normalised response (DU-4475) | normalised response (HDQ-P1) | normalised response (CAL-120) | normalised response (BT-474) | normalised response (CAL-51) | normalised response (SK-BR-3) | normalised response (MDA-MB-436) | normalised response (CAL-85-1) |
| --- | --- | --- | --- | --- | --- | --- | --- | --- | --- | --- | --- | --- | --- | --- | --- | --- | --- | --- | --- |
| CCCCC/C=C/C=C1/C(=O)C=C[C@@H]1C/C=C\CCCC(=O)O [15D-PGJ2] (0.8 nM) | 92.8% | 97.8% | 102% | 108% | 102% | 108% | 101% | 97% | 107% | 104% | 93.8% | 102% | 98.9% | 100% | 103% | 81.2% | 101% | 98.2% | 94.7% |
| O=C(Nc1c[nH]nc1-c1nc2ccc(CN3CCOCC3)cc2[nH]1)NC1CC1 [AT9283] (0.1 nM) | 97.2% | 89% | 100% | 99.9% | 104% | 97% | 97.5% | 98.4% | 99.5% | 97.5% | 109% | 101% | 96.8% | 45.5% | 102% | 81.9% | 90% | 97.5% | 95.8% |
| COc1cc(CCc2cc(NC(=O)c3ccc(N4CC(C)NC(C)C4)cc3)n[nH]2)cc(OC)c1 (stereo not given) [AZD4547] (0.1 nM) | 103% | 105% | 93.2% | 94.2% | 101% | 101% | 95.3% | 97.5% | 82.8% | 92.3% | 115% | 97.9% | 99.9% | 104% | 97.5% | 135% | 91.5% | 102% | 97.9% |
| COc1cc(CCc2cc(NC(=O)c3ccc(N4CC(C)NC(C)C4)cc3)n[nH]2)cc(OC)c1 (stereo not given) [AZD4547] (1 nM) | 97.8% | 94.8% | 91.9% | 98.4% | 96% | 97% | 98.6% | 91.9% | 85% | 96.7% | 104% | 94.6% | 98.3% | 101% | 103% | 102% | 106% | 97.2% | 96.9% |
| CC(=O)OC[C@H]1O[C@@H]([S-])[C@H](OC(C)=O)[C@@H](OC(C)=O)[C@@H]1OC(C)=O.CCP(CC)CC.[Au+] [Auranofin] (0.25 nM) | 95.7% | 97.4% | 103% | 92.3% | 104% | 99% | 104% | 103% | 101% | 108% | 75.3% | 97.9% | 99.9% | 100% | 99.4% | 70.1% | 101% | 93.8% | 93.8% |
| CC(=O)OC[C@H]1O[C@@H]([S-])[C@H](OC(C)=O)[C@@H](OC(C)=O)[C@@H]1OC(C)=O.CCP(CC)CC.[Au+] [Auranofin] (2.5 nM) | 99.2% | 95.8% | 104% | 94.5% | 108% | 97.8% | 103% | 99.8% | 106% | 107% | 87.5% | 105% | 91.3% | 92.5% | 99.4% | 111% | 104% | 103% | 95.4% |
| CCC/C=C/C=C/C(=O)O[C@H]1/C(=C/C(=O)OC)C[C@H]2C[C@H]([C@@H](C)O)OC(=O)C[C@H](O)C[C@@H]3C[C@H](OC(C)=O)C(C)(C)[C@](O)(C[C@@H]4C/C(=C/C(=O)OC)C[C@H](/C=C/C(C)(C)[C@]1(O)O2)O4)O3 [Bryostatin 1] (0.01 nM) | 104% | 99.1% | 105% | 98.6% | 105% | 97.7% | 100% | 109% | 101% | 108% | 118% | 107% | 97.8% | 96.1% | 106% | 92.1% | 103% | 101% | 101% |
| CO[C@@H](C(=O)N1Cc2[nH]nc(NC(=O)c3ccc(N4CCN(C)CC4)cc3)c2C1)c1ccccc1 [Danusertib] (1 nM) | 101% | 102% | 94.8% | 95.5% | 104% | 91.5% | 98% | 110% | 98.2% | 94.2% | 121% | 99% | 93.9% | 99.1% | 101% | 101% | 90.8% | 103% | 96.3% |
| Cc1nc(Nc2ncc(C(=O)Nc3c(C)cccc3Cl)s2)cc(N2CCN(CCO)CC2)n1 [Dasatinib] (0.1 nM) | 93.3% | 98.3% | 99.9% | 98.5% | 93.9% | 96.5% | 99.7% | 112% | 96.9% | 107% | 99% | 94.6% | 98.9% | 98.9% | 97.3% | 77% | 98.3% | 101% | 94.2% |
| O=S(=O)(c1cccc2cnccc12)N1CCCNCC1 [Fasudil] (5 nM) | 103% | 99.6% | 99.3% | 94.8% | 101% | 96.1% | 97.3% | 107% | 105% | 97.9% | 109% | 101% | 103% | 95.5% | 97.4% | 81.8% | 101% | 98% | 102% |
| Cc1c(CN2CCN(C(=O)[C@H](C)O)CC2)sc2c(N3CCOCC3)nc(-c3cnc(N)nc3)nc12 [GDC-0980] (1 nM) | 108% | 105% | 98.8% | 98.9% | 109% | 96.7% | 103% | 94.9% | 112% | 108% | 110% | 104% | 103% | 104% | 111% | 115% | 105% | 101% | 105% |
| Cc1c(CN2CCN(C(=O)[C@H](C)O)CC2)sc2c(N3CCOCC3)nc(-c3cnc(N)nc3)nc12 [GDC-0980] (10 nM) | 113% | 101% | 106% | 107% | 107% | 106% | 98.3% | 97.5% | 117% | 109% | 105% | 101% | 94.4% | 97.4% | 106% | 90.2% | 108% | 104% | 96.9% |
| Cc1cccc(-c2nn3c(c2-c2ccnc4ccc(C(N)=O)cc24)CCC3)n1 [Galunisertib] (0.1 nM) | 116% | 95.7% | 108% | 104% | 100% | 110% | 110% | 107% | 112% | 109% | 107% | 105% | 104% | 104% | 108% | 76.9% | 109% | 104% | 98.1% |
| Nc1cccc2c1CN(C1CCC(=O)NC1=O)C2=O (stereo not given) [Lenalidomide] (1 nM) | 110% | 101% | 97.3% | 94% | 98.4% | 93.1% | 97.1% | 112% | 97.8% | 96.1% | 106% | 106% | 97.9% | 94.9% | 97% | 113% | 107% | 94% | 108% |
| Nc1cccc2c1CN(C1CCC(=O)NC1=O)C2=O (stereo not given) [Lenalidomide] (10 nM) | 105% | 101% | 95.8% | 91.2% | 97.8% | 105% | 97.1% | 104% | 99.7% | 104% | 111% | 102% | 99.9% | 92.6% | 97.8% | 73.6% | 107% | 91.9% | 106% |
| C[C@]12O[C@H](C[C@]1(O)CO)n1c3ccccc3c3c4c(c5c6ccccc6n2c5c31)CNC4=O [Lestaurtinib] (0.1 nM) | 95.8% | 98.4% | 96.7% | 95% | 102% | 99.6% | 97.8% | 100% | 90.7% | 92.9% | 92.7% | 94.8% | 100% | 103% | 96.7% | 91.1% | 89.2% | 94% | 103% |
| O=C1c2c(O)ccc(O)c2C(=O)c2c(NCCNCCO)ccc(NCCNCCO)c21 [Mitoxantrone] (0.1 nM) | 97.8% | 99.3% | 97.3% | 98.1% | 98.9% | 104% | 96.9% | 99.3% | 94.2% | 103% | 95.3% | 94.2% | 102% | 103% | 91.8% | 101% | 98% | 84.4% | 101% |
| O=C1c2c(O)ccc(O)c2C(=O)c2c(NCCNCCO)ccc(NCCNCCO)c21 [Mitoxantrone] (1 nM) | 100% | 91.3% | 106% | 98.7% | 100% | 98.3% | 102% | 103% | 101% | 97.8% | 96.7% | 99.1% | 96.2% | 96.9% | 94.5% | 73.6% | 100% | 98.8% | 100% |
| Nc1ccccc1NC(=O)c1ccc(CNc2nccc(-c3cccnc3)n2)cc1 [Mocetinostat] (1 nM) | 101% | 98.5% | 98.1% | 102% | 103% | 96.7% | 99.3% | 114% | 109% | 91.6% | 91.5% | 105% | 101% | 102% | 100% | 85.2% | 103% | 111% | 101% |
| COc1nc(N)nc2c1ncn2[C@@H]1O[C@H](CO)[C@@H](O)[C@@H]1O [Nelarabine] (1 nM) | 84% | 102% | 88.2% | 88.8% | 98.1% | 92.3% | 94.8% | 90.4% | 84.1% | 79.1% | 105% | 89.5% | 90.5% | 94.5% | 87.9% | 117% | 86.1% | 86% | 94.9% |

From the supplement of paper PMC4862054
